In patent US11000033B2, “Ketone or oxime compound, and herbicide” (NISSAN CHEMICAL CORPORATION, priority 2014, dated 2021):

Columns and labels:
Type in all cases: in vivo
Avena fatua = test: Test Example 5: herbicidal effect by foliage application, plastic box (symbol I); settings: 320 g/ha, 3 weeks after application
Method in brief: (§1)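 Post-emergence spray; diluvial soil (sterilized), ~1.5 cm seed cover; greenhouse 25–30° C; 14-day-old plants; water-diluted emulsion at predetermined dose; visual score at 3 wk post-treatment.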

Galium spurium [1] = test: Test Example 4: herbicidal effect by soil treatment (symbol Q); settings: 320 g/ha
Method in brief: (§2)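 Seeds were sown in sterilized diluvial soil, covered with about 1.5 cm of soil, and the soil surface was sprayed with a water-diluted emulsion of the compound at a predetermined rate. Plants grew in a greenhouse at 25° C. to 30° C.; effects were scored visually 3 weeks after application.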

Galium spurium [2] = test: Test Example 5: herbicidal effect by foliage application, plastic box (symbol Q); settings: 320 g/ha, 3 weeks after application
Method in brief: as §1

rapeseed = test: Test Example 4: effect on crop by soil treatment (symbol g); settings: 320 g/ha
Method in brief: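 Plants are raised in a greenhouse (25° C. to 30° C.) from spot-sown seed, which sits under about 1.5 cm of sterilized diluvial soil in a box shared with weed species.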

Cyperus difformis = test: Test Example 3: herbicidal effect by foliage application, Wagner pot (symbol E); settings: application herbicide amount 320 g/ha
Method in brief: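 Herbicidal activity was rated three weeks after a foliar spray of diluted emulsion concentrate, applied at a predetermined dose to plants grown for 14 days from seed in waterlogged alluvial soil within a 25–30 °C greenhouse.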

[3] = test system: Echinochloa crus-galli var. crus-galli; test: Test Example 4: herbicidal effect by soil treatment (symbol H); settings: 320 g/ha
Method in brief: as §2

[4] = test system: Echinochloa oryzacola Vasing.; test: Test Example 1: herbicidal activity, application before weed generation in submerged conditions (symbol A); settings: application herbicide amount 320 g/ha
Method in brief: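 Application before weed emergence: an aqueous dilution of the emulsion formulation was poured onto the surface of 4 cm-deep floodwater on the day of sowing. Effect was judged after 3 weeks (greenhouse, 25–30 °C).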

Abutilon theophrasti = test: Test Example 5: herbicidal effect by foliage application, plastic box (symbol M); settings: 320 g/ha, 3 weeks after application
Method in brief: as §1

Amaranthus retroflexus [5] = test: Test Example 5: herbicidal effect by foliage application, plastic box (symbol N); settings: 320 g/ha, 3 weeks after application
Method in brief: as §1

Apera spica-venti = test: Test Example 5: herbicidal effect by foliage application, plastic box (symbol L); settings: 320 g/ha, 3 weeks after application
Method in brief: as §1

corn = test: Test Example 4: effect on crop by soil treatment (symbol c); settings: 320 g/ha
Method in brief: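 Sterilized diluvial soil, spot sowing, ~1.5 cm soil cover; greenhouse 25–30° C.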

Stellaria media = test: Test Example 5: herbicidal effect by foliage application, plastic box (symbol P); settings: 320 g/ha, 3 weeks after application
Method in brief: as §1

Veronica persica = test: Test Example 5: herbicidal effect by foliage application, plastic box (symbol R); settings: 320 g/ha, 3 weeks after application
Method in brief: as §1

Amaranthus retroflexus [6] = test: Test Example 4: herbicidal effect by soil treatment (symbol N); settings: 320 g/ha
Method in brief: as §2

Scirpus juncoides = test: Test Example 2: herbicidal activity, application during weed generation in submerged conditions (symbol B); settings: Table 23; application herbicide amount 320 g/ha; grade 0-5 by criteria of Test Example 1
Method in brief: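 Visual herbicidal ratings, taken three weeks after dosing, reflect post-emergence water-surface application to seedlings at one to two leaves. Conditions: co-sown weeds in alluvial soil flooded to 4 cm, greenhouse held at 25° C. to 30° C.; compound given as water-diluted emulsion at a fixed herbicide amount.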

Lolium multiflorum Lam. = test: Test Example 5: herbicidal effect by foliage application, plastic box (symbol K); settings: 320 g/ha, 3 weeks after application
Method in brief: as §1

SMILES | I: Avena fatua, herbicidal effect (criteria 0-5) (Avena fatua) | Q: Galium spurium, herbicidal effect grade (Galium spurium [1]) | Q: Galium spurium, herbicidal effect (criteria 0-5) (Galium spurium [2]) | g: rapeseed, effect grade on crop (rapeseed) | herbicidal effect on E, grade 0-5 (Cyperus difformis) | H: Echinochloa crus-galli var. crus-galli, herbicidal effect grade [3] | Herbicidal effect grade, A: Echinochloa oryzacola Vasing. [4] | M: Abutilon theophrasti, herbicidal effect (criteria 0-5) (Abutilon theophrasti) | N: Amaranthus retroflexus, herbicidal effect (criteria 0-5) (Amaranthus retroflexus [5]) | L: Apera spica-venti, herbicidal effect (criteria 0-5) (Apera spica-venti) | c: corn, effect grade on crop (corn) | P: Stellaria media, herbicidal effect (criteria 0-5) (Stellaria media) | R: Veronica persica, herbicidal effect (criteria 0-5) (Veronica persica) | N: Amaranthus retroflexus, herbicidal effect grade (Amaranthus retroflexus [6]) | Herbicidal effect grade, B: Scirpus juncoides (Scirpus juncoides) | K: Lolium multiflorum Lam., herbicidal effect (criteria 0-5) (Lolium multiflorum Lam.)
CC(CC1CC(O)=C(c2c(C)cc(C)cc2C)C1=O)=NOCC1OCCO1 (centres unmarked) [1-111] | 5 (Herbicidal ratio of 90% or more (almost completely withered)) | 0 (Herbicidal ratio of 5% or lower (almost no effect)) | 2 (Herbicidal ratio of 20% or higher and lower than 40%) | 4 (Herbicidal ratio of 70% or higher and lower than 90%) | 5 (Herbicidal ratio of 90% or more (almost completely withered)) | 5 (Herbicidal ratio of 90% or more (almost completely withered)) | 5 (Herbicidal ratio of 90% or more (almost completely withered)) | 1 (Herbicidal ratio of 5% or higher and lower than 20%) | 0 (Herbicidal ratio of 5% or lower (almost no effect)) | 5 (Herbicidal ratio of 90% or more (almost completely withered)) | 1 (Herbicidal ratio of 5% or higher and lower than 20%) | 3 (Herbicidal ratio of 40% or higher and lower than 70%) | 1 (Herbicidal ratio of 5% or higher and lower than 20%) | 0 (Herbicidal ratio of 5% or lower (almost no effect)) | 1 (Herbicidal ratio of 5% or higher and lower than 20%) | 5 (Herbicidal ratio of 90% or more (almost completely withered))
CC(CC1CC(O)=C(c2c(C)cc(C)cc2C)C1=O)=NOCCS(C)(=O)=O (centres unmarked) [1-110] | 5 (Herbicidal ratio of 90% or more (almost completely withered)) | 0 (Herbicidal ratio of 5% or lower (almost no effect)) | 3 (Herbicidal ratio of 40% or higher and lower than 70%) | 1 (Herbicidal ratio of 5% or higher and lower than 20%) | 5 (Herbicidal ratio of 90% or more (almost completely withered)) | 5 (Herbicidal ratio of 90% or more (almost completely withered)) | 3 (Herbicidal ratio of 40% or higher and lower than 70%) | 0 (Herbicidal ratio of 5% or lower (almost no effect)) | 0 (Herbicidal ratio of 5% or lower (almost no effect)) | 5 (Herbicidal ratio of 90% or more (almost completely withered)) | 4 (Herbicidal ratio of 70% or higher and lower than 90%) | 3 (Herbicidal ratio of 40% or higher and lower than 70%) | 3 (Herbicidal ratio of 40% or higher and lower than 70%) | 0 (Herbicidal ratio of 5% or lower (almost no effect)) | 0 (Herbicidal ratio of 5% or lower (almost no effect)) | 5 (Herbicidal ratio of 90% or more (almost completely withered))
